Assay results as given in patent US8278100B2, “Lasonolide compounds as reagents for inducing premature chromosome condensation and methods for treating disorders” (The United States of America, as Represented by the …, priority 2008, dated 2012).
Values joined by “and” are separate entries in the source; they are usually repeats but may differ in a detail not shown here. Equal values may be shown once. “Also recorded” adds a separate entry of the source.

Key:
[1] = tested on: Burkitt's Lymphoma CA46 cells; test: PCC induction and PI staining; assay type: cell-based, human; conditions: 1 h
Description: (§1) Burkitt's Lymphoma CA46 cells (500,000) (FIG. 1B) or breast cancer MDA-MB-231 cells (500,000) (FIG. 1A) were treated by 100 nM Lasonolide A (stock solution 100 μM in DMSO) for 1 h. Lymphocytes were treated with 200 nM Lasonolide A for 1 h. Cells were harvested with centrifuging on 2,000 rpm for 5 min at 4° C. Pellets were washed once by PBS and re-suspended in 1 mL PBS. 200 μL cells mixture were added to the chamber for cytospining. Cells were cytospun on 800 rpm for 10 min; slides were fixed in fresh-made 4% paraformaldehyde fixation for 20 min at room temperature, then moved to 70% ethanol for 20 min. Slides were stained with Propidium Iodide (“PI”) (20 μg/mL) and RNase A (100 μg/mL) for 15 min. Slides were washed with PBS for three times and mounted with Vectashield anti-fade mounting media (Vector Laboratories, Inc., Burlingame, Calif.). Images were taken using a Nikon Eclipse TE-300 confocal microscope.

[2] = tested on: breast cancer MDA-MB-231 cells; test: PCC induction and PI staining; assay type: cell-based, human; conditions: 1 h
Description: as §1

[3] = tested on: human lymphocytes; test: PCC induction and PI staining; assay type: cell-based; conditions: 200 nM Lasonolide A, without additional reagents
[4] = tested on: tumor cells; test: Premature chromosome condensation (PCC) induction, cells not specified; assay type: cell-based
Description: as §1

[5] = tested on: chromosome condensation in each phase of the cell cycle; test: Chromosome spread assay; assay type: cell-based
Description: After the induction of PCC by Lasonolide A, cells were incubated in hypotonic solution (10 mM Tris-HCl [ph 7.4], 40 mM glycerol, 20 mM NaCl, 1 mM CaCl2, 0.5 mM MgCl2) at 37° C. for 15 min. Then followed with cytospining at 1,800 rpm for 10 min and normal PI staining as above (FIG. 1E).

[6] = tested on: chromatin condensation; test: DNase I sensitivity assay; assay type: cell-based; conditions: 1 h
Description: Cells were treated with different concentrations of Lasonolide A for 1 h and were collected with centrifuging. The centrifuged cells were washed with PBS and fixed with 1.5% PFA for 15 min on ice. After washing by PBS, fresh PBS was added (300 μL) to re-suspend the pellet, then 700 μL 70% EtOH was gently added and the mixture was maintained at −20° C. overnight. The solution was washed by PBS once, then washed by 1× DNase I reaction buffer (500 μL), then incubated in 200 μL Reaction buffer with 4 Units DNase I (2 μL), 37° C., 10 min. The solution was washed by PBS and incubated in 100 μL Polymerase reaction buffer including 16 μM dATP, 16 μM dCTP, 16 μM dGTP, 16 μM dUTP-FITC, 100 unit/mL Polymerase I, 37° C. 60 min. FL1 channel of Green fluorescence signal were measured with flow cytometer (FIG. 1C).

[7] = tested on: CA 46 cells; test: BrdU incorporation; assay type: cell-based, human
Description: (§2) A number of cells (5×10^5) were pulse-labeled with 50 μmol/L BrdU (Calbiochem, La Jolla, Calif.) for 30 minutes. Cells were collected, fixed in 70% ethanol at 4° C., washed with PBS, resuspended in 3 mL 2 mol/L HCl/0.5% Triton X-100, and left at room temperature for 30 minutes. Cells were spun down after adding 6 mL 0.1 M sodium borate (pH 8.5). Pellets were washed with PBS/0.5% Tween-20 twice, then resuspended in 15 μL FITC-conjuncted anti-BrdU antibody (Becton Dickinson, Franklin Lakes, N.J.). After incubation with the anti-BrdU antibody at room temperature for 60 minutes, pellets were washed once with PBS, and resuspended in 500 μL of PI solution (50 μg/mL PI and 50 μg/mL RNase). Analyses were done with a FACScan flow cytometer (Becton Dickinson, San Jose, Calif.) (FIG. 2B).

[8] = tested on: MDA-MB-231 cells; test: BrdU incorporation; assay type: cell-based, human
Description: as §2

[9] = tested on: Acetylated-H3K9; test: Western blot; assay type: cell-based
Description: (§3) Protein levels were measured by Western blotting with corresponding specific primary antibodies, including those against Cdc2 p34(Santa Cruz), cyclinB1 (Santa Cruz) (FIG. 4A), Anti-Acetylated-H3K9 (Upstate), phosphorylated-H3 Ser28 (Cell signaling). GAPDH was as the loading control.

[10] = tested on: cyclinB1; test: Western blot; assay type: cell-based
Description: as §3

[11] = tested on: phosphorylated-H3 Ser28; test: Western blot; assay type: cell-based
Description: as §3

[12] = tested on: phosphorylated-H3 Ser28 in CA46 cells; test: Immunofluorescence assay; assay type: cell-based, human
Description: After drug treatments, CA46 cells were cytospun on the slides. Slides were fixed for 20 min with 4% paraformaldehyde in PBS (pH 7.4), and washed twice with PBS. After incubation for 20 min with 70% ethanol and washing with PBS, the cells were incubated in blocking buffer [8% bovine serum albumin (BSA) in PBS] for 1 h before incubation for 2 h with primary antibodies against phosphorylated-H3 Ser28 (Cell signaling) (FIG. 5). Slides were incubated for additional 1 h with the Alex488-conjugated secondary antibody (Alexa Fluoro 488 donkey anti-goat IgG, Molecular Probes, Invitrogen, CA). After three washes in PBS, cells were stained with 0.5 μg/mL propidium iodide (PI) and 100 μg/mL RNase A (Sigma, Mo.) for 15 min in the dark. Finally, slides were washed with PBS for three times and mounted with Vectashield anti-fade mounting media (Vector Laboratories, Inc., Burlingame, Calif.). Images were taken using a Nikon Eclipse TE-300 confocal microscope.

[13] = tested on: MDA-MB-231 cells; test: Cell adhesion assay; assay type: cell-based, human
Description: The effect of Lasonolide A on the extracellular matrix-induced cell adhesion was determined as follows. Fibronectin or collagen was diluted in sterile water and applied to 96-well plates overnight at 4° C. Nonspecific binding sites were blocked with 1% bovine serum albumin for 1 h at room temperature. Breast cancer MDA-MB-231 cells were serum starved for 45 min, detached with 2 mmol/L EDTA in PBS, plated in triplicate onto wells in serum-free medium with or without Lasonolide A, and allowed to adhere for 1 h at 37° C. Nonadherent cells were washed away and adherent cells were fixed with 4% paraformaldehyde and stained with 0.1% crystal violet in 2% methanol. Following extensive washing with tap water, dye was extracted with 10% acetic acid and quantified by measuring absorbance at 595 nm on a multiwell spectrophotometer (VersaMax, Molecular Devices). (FIGS. 6A, 6B, & 6D)

C=C(CCC(C)C)COC(=O)[C@H](O)C/C=C\C[C@@H]1O[C@@H]2/C=C/C/C=C/C(C)=C\[C@H]3O[C@@H](C/C=C/C=C/C(=O)O[C@H](C2)[C@@]1(C)CO)C[C@H](O)[C@H]3C [Lasonolide A]
cells with premature chromosome condensation (PCC) ([1]; 100 nM Lasonolide A): 97.9% and 99.5% | PCC induction (in words) ([1]; 100 nM): induced premature chromosome condensation (PCC) | PCC induction (in words) ([2]; 100 nM): induced premature chromosome condensation (PCC) | cells with PCC [2]: 13% | lymphocytes going to PCC [3]: 35.5% | reversibility of PCC induction [4]: reversible | time to PCC induction ([4]; nanomolar concentrations): ≤ 1 h | PCC induction compared with Okadaic Acid ([4]; tumor cells and normal human lymphocytes): more potent ability of PCC induction | cell cycle phases in which PCC is induced [5]: induce PCC in each phases of cell cycle; also recorded: induce PCC in each phase of the cell cycle | DNase I sensitivity, fluorescence shift ([6]; 100 nM): evidence of an effect | DNase I sensitivity, fluorescence shift ([6]; 200 nM): a greater change, affecting signal amplitude | DNA replication (BrdU incorporation) [7]: decelerated DNA replication | DNA replication (BrdU incorporation) [8]: decelerated DNA replication | acetylation of histone H3 [9]: decreased the acetylation of histone H3 Lysine 9; also recorded: decreased the acetylation of H3 (Arg9) | H3 acetylation induced by the HDAC inhibitor SAHA ([9]; with SAHA): attenuated the enhancement of H3 acetylation | protein level of cyclinB1 [10]: decreased the protein level of cyclinB1 | phosphorylation of H3 (Ser28) [11]: increased the phosphorylation of H3 (Ser28) | phosphorylation of H3 (Ser28), immunofluorescence [12]: showed the phosphorylation of H3 (Ser28) | attachment of cells to collagen I ([13]; collagen I): blocked; also recorded: reduced | attachment of cells to fibronectin ([13]; fibronectin): blocked; also recorded: reduced | cell adhesion / detachment ([13]; low dose, short-time treatment, nanomolar concentration): inhibited adhesion; also recorded: detached cells into suspension
